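Test compounds were applied to cells in 96-well plates for 48 hours at 5 doses. Here, GI50 denotes the concentration required for 50% inhibition of growth. TGI is the concentration that stops growth completely.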
Columns and labels:
Test in all cases: NCI anticancer screen, dose series, 48 h
[1] = test system: 786-0 renal
[2] = test system: A498 renal
[3] = test system: A549 NSCLC
[4] = test system: HOP-62 NSCLC
[5] = test system: IGROV1 ovarian
[6] = test system: RPMI-8226 leukemia
[7] = test system: RXF 393 renal
[8] = test system: SK-MEL-5 melanoma
[9] = test system: SNB-75 CNS
[10] = test system: T-47D breast

Row | Structure (SMILES) | GI50 [1] | TGI [1] | GI50 [2] | TGI [2] | GI50 [3] | TGI [3] | GI50 [4] | TGI [4] | GI50 [5] | TGI [5] | GI50 [6] | TGI [6] | GI50 [7] | TGI [7] | GI50 [8] | TGI [8] | GI50 [9] | TGI [9] | GI50 [10] | TGI [10]
1 | COc1ccc2c(c1)c(-c1cc(-c3cn(C)c4ccc(OC)cc34)[nH]n1)cn2C | > 100 µM | > 100 µM | > 100 µM | > 100 µM | > 100 µM | > 100 µM | > 100 µM | > 100 µM | > 100 µM | > 100 µM | > 100 µM | > 100 µM | > 100 µM | > 100 µM | > 100 µM | > 100 µM | > 100 µM | > 100 µM | > 100 µM | > 100 µM
2 | Cc1nc2cc(Nc3nc(Nc4ccc(F)cc4)nc(-c4ccc(Cl)cc4)n3)ccc2n1Cc1ccccc1 | 6.48 µM | 52.3 µM | 4.54 µM | > 100 µM | 6.18 µM | 36.9 µM | 7.36 µM | 27.3 µM | 5.9 µM | > 100 µM | 2.62 µM | > 100 µM | 4.21 µM | 38.5 µM | 3.47 µM | > 100 µM | 2.2 µM | 10.5 µM | 2.44 µM | 24.8 µM
3 | Cc1ccc2c(C(C[N+](=O)[O-])c3ccco3)c(-c3ccccc3)[nH]c2c1 (centres undefined) | 41.3 µM | > 100 µM | 4.02 µM | 74.3 µM | 48.3 µM | > 100 µM | 16 µM | > 100 µM | 24.6 µM | > 100 µM | 53.7 µM | > 100 µM | 32.2 µM | > 100 µM | 29.7 µM | > 100 µM | 4.75 µM | 71 µM | 23 µM | > 100 µM
4 | CC(=O)c1c(Nc2ccc(F)c(F)c2F)[nH]c2c(F)cc(F)cc2c1=O | 0.368 µM | 15.1 µM | 0.206 µM | 0.575 µM | 0.382 µM | > 41.8 µM | 0.335 µM | 8.18 µM | 0.396 µM | > 47.4 µM | 0.206 µM | 0.72 µM | 0.3 µM | 2.41 µM | 0.188 µM | 0.431 µM | 0.289 µM | 8.52 µM | 0.25 µM | –
5 | NCCNc1nc2ccccc2c2c(=O)c3cc(F)cc(Cl)c3sc12 | 1.64 µM | 3.14 µM | 1.56 µM | 3.31 µM | 1.79 µM | 3.72 µM | 1.35 µM | 3.04 µM | 1.51 µM | 3.01 µM | 1.8 µM | 3.82 µM | 1.62 µM | 3.16 µM | 2.52 µM | 6.66 µM | 1.27 µM | 2.56 µM | 1.55 µM | 3.48 µM
6 | Nc1ccc2c(SCC(=O)Nc3ccccc3-c3ccccc3NC(=O)CSc3c4ccccc4nc4cc(N)ccc34)c3ccccc3nc2c1 | – | 56 µM | – | 65.9 µM | – | > 100 µM | – | 63.4 µM | – | 83 µM | – | 38.6 µM | – | 63.5 µM | – | 30.1 µM | – | > 96.4 µM | – | > 63.3 µM
7 | CC(=O)OC1Oc2cc(C)c(C)cc2-c2oc(=O)c(-c3ccccc3)cc21 (centres undefined) | 0.429 µM | 24.8 µM | 0.271 µM | 3.11 µM | 0.608 µM | > 53.8 µM | 0.44 µM | 21.9 µM | 0.139 µM | 0.432 µM | 0.287 µM | 0.969 µM | 0.343 µM | 37.1 µM | 0.231 µM | 4.06 µM | 0.21 µM | 0.902 µM | 0.352 µM | > 68.1 µM
8 | CC(C)c1ccc2c(c1)c(SC(C)(C)C)c(CC(C)(C)C(=O)O)n2Cc1ccc(Cl)cc1 | 11.1 µM | 27.7 µM | 10.8 µM | 23.3 µM | 3.27 µM | 14.1 µM | 12.4 µM | 28.9 µM | 10.5 µM | 23.5 µM | 5.17 µM | 41.8 µM | 2.87 µM | 12.4 µM | 9.53 µM | 22.4 µM | 9.76 µM | 22.3 µM | 9.86 µM | 27.3 µM
9 | CC(C)(C)OC(=O)n1c(Cl)c(C(=O)N=C=S)c2ccccc21 | 80 µM | > 100 µM | 92.6 µM | > 100 µM | 50 µM | > 100 µM | > 100 µM | > 100 µM | 9.65 µM | 34.7 µM | 24.4 µM | 87.4 µM | 53.4 µM | > 100 µM | 18.8 µM | 40.1 µM | > 100 µM | > 100 µM | 47.8 µM | > 100 µM
10 | COc1ccc(-c2conc2-c2ccccc2)cc1 | 1.28 µM | 53 µM | 0.107 µM | 0.58 µM | 0.502 µM | > 100 µM | 0.43 µM | > 100 µM | 0.498 µM | > 100 µM | 0.453 µM | 41.9 µM | 0.249 µM | > 100 µM | 0.441 µM | 4.47 µM | 0.109 µM | 0.455 µM | 0.329 µM | > 100 µM
11 | COc1ccc(-c2nn(-c3cccc(Cl)c3)cc2/C=C2\C(=N)N(c3ccccc3)N=C2N)cc1 | 1.35 µM | 29.9 µM | 11.2 µM | > 78.8 µM | 0.54 µM | > 82.2 µM | 16 µM | > 80.6 µM | 2.1 µM | > 84.8 µM | 0.993 µM | 46.2 µM | 17.5 µM | > 80.6 µM | 2.16 µM | 7.73 µM | 18.8 µM | 98.6 µM | 1.81 µM | > 100 µM
12 | CCCCCCCCCCCCNC(=O)[C@H]1CSC(c2ccsc2)N1 (some centres undefined) | 0.916 µM | 1.65 µM | 9.62 µM | 17.1 µM | 6.77 µM | 13.7 µM | 0.873 µM | 1.62 µM | 0.96 µM | 1.92 µM | 1.72 µM | 5.69 µM | 0.96 µM | 1.69 µM | 1.36 µM | 5.22 µM | 0.938 µM | 1.67 µM | 0.976 µM | 2.02 µM

Source: PubChem BioAssay (NCI)
